The subject of series [1] is Vero E6 cells.
For series [2], the system named is SARS-CoV-2 clinical isolate. The series is described as follows: SARS-CoV-2 virus yield reduction assay in Vero E6 cells. The series is classed as cell-based. How it is done: At time 0 hr, Vero E6 cells were infected with virus in presence of the formulation or controls and incubated for 1 hour. After this incubation period the inoculum was removed and the cells were washed. Fresh formulation or controls were then added to the washed cells. At 24 hours post infection, Vero E6 cell supernatants were harvested and titrated, and the virus titration was incubated for 6 days prior to readout to determine any virus yield reduction. Separate tests were performed at four MOIs including 3.0 and 0.3, although only those two MOIs were titrated. The readout was by crystal violet (cell monolayer) staining, followed by CPE scoring.

For the molecule `O=C(O)CC(O)(CC(=O)O)C(=O)O` [citric acid pH 5.8, citric acid], the “Cytotoxicity on the LDH assay” value in series [1] is “low cytotoxicity”. The “In vitro antiviral action against SARS-CoV-2” value in series [2] (FIGS. 33 and 34) is on record as “high in vitro antiviral action”.
In the case of `CCN(CC)CCCC(C)Nc1ccnc2cc(Cl)ccc12` (stereo not shown) [chloroquine, Chloroquine phosphate], the SARS-CoV-2 virus titre result in series [2] (FIG. 33, Run 1, MOI 3.0, 24 hours) is “limit of detection”; in series [2] (FIG. 34, Run 2, MOI 3.0 and MOI 0.3, 48 hours) it was “limit of detection”.

Source of the values: US20220257642A1, “METHODS AND COMPOSITIONS FOR GENERATING NITRIC OXIDE AND USES THEREOF TO DELIVER NITRIC OXIDE VIA THE RESPIRATORY TRACT” (THIRTY RESPIRATORY LIMITED, priority 2019, published 2022).
